Source: patent publication US11098102B2, “Insulin conjugates” (SANOFI, priority 2018, dated 2021)

Columns and labels:
[1] = biological target: T1, insulin receptor isoform B (IR-B) (Homo sapiens, UniProt P06213); assay: Insulin receptor autophosphorylation assay (In-Cell Western, CHO cells, Example 8B); format: cell-based; parameters: expressed in transfected cells; host or cells: CHO cells; conditions: relative to human insulin
[2] = biological target: T1, insulin receptor isoform B (IR-B); assay: Insulin receptor binding affinity assay of insulin analogs (Example 8A, SPA competition binding); parameters: expressed in transfected cells; host or cells: CHO cells overexpressing the IR; isolated plasma membranes; conditions: relative to human insulin; a value of 0 means below the detection limit
Protocol: Methods for determining the binding affinity of an insulin analog to an insulin receptor are well known in the art. […] The insulin receptor can be present in a membrane of a cell, e.g. of CHO (Chinese Hamster Ovary) cell, which overexpresses a recombinant insulin receptor. In an embodiment, the insulin receptor binding affinity is determined as described in the Examples section.
Insulin receptor binding affinity for the analogs listed in Table 4 was determined as described in Hartmann et al. (Effect of the long-acting insulin analogs glargine and degludec on cardiomyocyte cell signaling and function. Cardiovasc Diabetol. 2016; 15:96). Isolation of insulin receptor embedded plasma membranes (M-IR) and competition binding experiments were performed as previously described (Sommerfeld et al., PLoS One. 2010; 5 (3): e9540). Briefly, CHO-cells overexpressing the IR were collected and re-suspended in ice-cold 2.25 STM buffer (2.25 M sucrose, 5 mM Tris-HCl pH 7.4, 5 mM MgCl2, complete protease inhibitor) and disrupted using a Dounce homogenizer followed by sonication. The homogenate was overlaid with 0.8 STM buffer (0.8 M sucrose, 5 mM Tris-HCl pH 7.4, 5 mM MgCl2, complete protease inhibitor) and ultra-centrifuged for 90 min at 100,000 g. Plasma membranes at the interface were collected and washed twice with phosphate buffered saline (PBS). The final pellet was re-suspended in dilution buffer (50 mM Tris-HCl pH 7.4, 5 mM MgCl2, complete protease inhibitor) and again homogenized with a Dounce homogenizer. Competition binding experiments were performed in a binding buffer (50 mM Tris-HCl, 150 mM NaCl, 0.1% BSA, complete protease inhibitor, adjusted to pH 7.8) in 96-well microplates. In each well 2 μg isolated membrane was incubated with 0.25 mg wheat germ agglutinin polyvinyltoluene polyethylenimine scintillation proximity assay (SPA) beads. […] The radioactivity was measured at equilibrium in a microplate scintillation counter (Wallac Microbeta, Freiburg, Germany).”

[3] = biological target: Insulin degrading enzyme, IDE (Homo sapiens, UniProt P14735); assay: In vitro proteolytic stability against insulin degrading enzyme (Example 9); format: in vitro ADME; conditions: 37° C., 2 μM
Protocol: (§1) The stability determination was done using appropriate time points (for SIF and SGF 15, 30, 60, 120 and 240 minutes; for proteases 15, 30, 60 and 120 minutes). The incubation was done at 37° C. and the % of remaining parent compound was calculated in reference to a TO time point.
(§2) For the determination of the parent compound an appropriate bioanalytical LC-MS/MS or LC-HRMS method was used, using the supernatant, after protein precipitation with ethanol (1 eq. v/v) and a centrifugation step.
(§3) Compounds were dissolved in diluted hydrochloric acid at a final concentration of 40 μM. The compound concentration in the assay was 2 μM. A 1:20 dilution of the working solution was done into the protease buffer and samples are then incubated at 37° C., under stirring. At the appropriate time point and aliquot was taken, the reaction was quenched ethanol (1 eq. v/v), than centrifuged. The supernatant was analyzed.

[4] = biological target: T2, immobilized human serum albumin (Homo sapiens, UniProt P02768); assay: Albumin binding: affinity chromatography on columns with immobilized human serum albumin (net retention time); conditions: isolated binders; HSA column 25° C., PBS pH 7.4/isopropanol gradient
T2 construct: purchased Chiralpak (Chiraltech) 34712
Protocol: In order to identify suitable binder molecules, which when bound to a peptide, such as an insulin, are able to improve the half-life in plasma and to prolong the profile of action, a system was established based on affinity chromatography with serum albumin columns, i.e. columns with immobilized serum albumin.
The net retention time of the binders (samples) was calculated according to the following formula: Net retention time=RetTimeSample−RetTimet0 marker
• Instrument: Waters Alliance 2795/Waters PDA 2996 or Waters H-Class UPLC equipped with a Waters Acquity photodiode-array detector • Software: Waters Empower 3 • Column: […]® HSA 50×4 mm; 5 μm Particle size • Chiraltech Order Numbers: HSA: 34712 • Eluent A: Phosphate Buffer saline (PBS) at pH=7.4 • Gibco PBS pH7.4 (10×) Phosphate Buffered Saline 500 ml; • Order Number: 70011-036 (500 ml) • Eluent B: Isopropanol • Fisher Order Number: A461-1 (10 • Gradient:
• Column temperature: 25° C. • Flow rate: 1.0 ml/min • Detection: λ=220 nm • Injection volume: 20 μL • Sample Conc.: 1 mg/ml insulin solution in PBS for insulin samples • 5 μL of 10 mM DMSO stock solution (DMSO evaporated and re-dissolved in 200 μL i-propanol/water 1:1 v/v) for isolated binder samples (250 μM, 0.2 mg/ml at 800 Da MolWeight) • t0 marker Sodium Nitrate (NaNO3) solution in water, 0.05 mg/ml • Diluted from aqueous 1 mg/ml stock solution (Fluka Order Number: 74246-100ML) • Reported Value Net retention time of sample: RetTime Sample−RetTime t0 marker
Affinity chromatography was carried out i) for insulin conjugates according to Examples 3.3 and 3.4 on a Waters Alliance Separation Module 2695 equipped with a Waters photodiode-array detector 2996 or Waters H-Class UPLC equipped with a Waters Acquity photodiode-array detector and ii) for isolated binders according to Example 2.11 on a Waters Alliance Separation Module 2795 equipped with a Waters photodiode-array detector 2996 or Waters H-Class UPLC equipped with a Waters Acquity photodiode-array detector.
Columns with immobilized human serum albumin (50×4 mm; 5 μm particle size) were purchased from Chiralpak and used for separations.
The columns with immobilized serum albumin were kept at 25° C. during the LC run, UV detection was carried out at 220 nm and injection volume was 20 μL.
The net retention time of the samples was reported according to Net retention time=RetTime Sample−RetTime t0 marker

[5] = biological target: Cathepsin D (Homo sapiens, UniProt P07339); assay: In vitro proteolytic stability against cathepsin D (Example 9); format: in vitro ADME; conditions: 37° C., 2 μM
Protocol: as §1, §2, §3

[6] = biological target: α-Chymotrypsin (Bos taurus, UniProt P00766); assay: In vitro proteolytic stability against α-chymotrypsin (Example 9); format: in vitro ADME; conditions: 37° C., 2 μM
Protocol: as §1, §2, §3

[7] = biological target: T3, simulated gastric fluid (pepsin) (Sus scrofa, UniProt P00791); assay: In vitro stability in simulated gastric fluid (Example 9); format: in vitro ADME, porcine; conditions: 37° C., 2 μM
T3 construct: from tissue; host or cells: porcine stomach mucosa
T3 sequence (P00791 60-385): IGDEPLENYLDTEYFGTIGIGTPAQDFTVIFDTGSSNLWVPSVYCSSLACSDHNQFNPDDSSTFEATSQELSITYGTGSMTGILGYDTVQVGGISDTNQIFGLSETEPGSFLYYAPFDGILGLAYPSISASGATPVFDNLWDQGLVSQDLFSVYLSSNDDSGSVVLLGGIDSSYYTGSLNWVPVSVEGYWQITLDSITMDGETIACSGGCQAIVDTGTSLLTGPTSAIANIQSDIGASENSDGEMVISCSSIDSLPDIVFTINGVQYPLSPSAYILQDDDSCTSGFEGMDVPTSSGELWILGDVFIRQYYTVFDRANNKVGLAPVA
Protocol: Two grams of sodium chloride and 3.2 g of purified pepsin (from porcine stomach mucosa, with an activity of 800 to 2500 units per mg of protein) were dissolved in 7.0 ml of hydrochloric acid. The volume was adjusted with water up to 1000 ml.
as §1, §2, §3

Sequence of Cathepsin D (P07339 65-412, species assumed): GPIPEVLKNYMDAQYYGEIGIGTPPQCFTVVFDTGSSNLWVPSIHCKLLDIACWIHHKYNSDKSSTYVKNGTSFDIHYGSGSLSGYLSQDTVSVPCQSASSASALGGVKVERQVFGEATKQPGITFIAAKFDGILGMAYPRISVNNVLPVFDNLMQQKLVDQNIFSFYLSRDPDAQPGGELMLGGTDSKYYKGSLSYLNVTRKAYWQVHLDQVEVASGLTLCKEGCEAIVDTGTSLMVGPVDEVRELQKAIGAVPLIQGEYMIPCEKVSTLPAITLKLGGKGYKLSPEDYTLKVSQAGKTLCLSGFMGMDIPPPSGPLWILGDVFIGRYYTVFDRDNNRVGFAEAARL
T2 sequence (P02768 25-609): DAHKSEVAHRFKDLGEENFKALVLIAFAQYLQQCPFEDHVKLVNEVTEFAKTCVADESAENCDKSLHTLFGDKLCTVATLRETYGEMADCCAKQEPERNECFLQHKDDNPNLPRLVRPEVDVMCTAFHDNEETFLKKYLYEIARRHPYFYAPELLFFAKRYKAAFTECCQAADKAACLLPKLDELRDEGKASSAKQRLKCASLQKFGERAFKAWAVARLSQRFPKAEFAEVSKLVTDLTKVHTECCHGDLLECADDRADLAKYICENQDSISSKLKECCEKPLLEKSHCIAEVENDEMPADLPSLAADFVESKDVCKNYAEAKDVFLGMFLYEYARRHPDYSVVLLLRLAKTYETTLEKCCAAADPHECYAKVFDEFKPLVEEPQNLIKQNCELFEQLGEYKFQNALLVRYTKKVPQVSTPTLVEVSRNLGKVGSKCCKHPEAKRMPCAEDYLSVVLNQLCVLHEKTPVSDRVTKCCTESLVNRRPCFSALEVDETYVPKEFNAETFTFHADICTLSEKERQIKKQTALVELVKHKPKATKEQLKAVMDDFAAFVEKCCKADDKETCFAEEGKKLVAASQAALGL
T1 sequence (P06213 28-758 limits assumed): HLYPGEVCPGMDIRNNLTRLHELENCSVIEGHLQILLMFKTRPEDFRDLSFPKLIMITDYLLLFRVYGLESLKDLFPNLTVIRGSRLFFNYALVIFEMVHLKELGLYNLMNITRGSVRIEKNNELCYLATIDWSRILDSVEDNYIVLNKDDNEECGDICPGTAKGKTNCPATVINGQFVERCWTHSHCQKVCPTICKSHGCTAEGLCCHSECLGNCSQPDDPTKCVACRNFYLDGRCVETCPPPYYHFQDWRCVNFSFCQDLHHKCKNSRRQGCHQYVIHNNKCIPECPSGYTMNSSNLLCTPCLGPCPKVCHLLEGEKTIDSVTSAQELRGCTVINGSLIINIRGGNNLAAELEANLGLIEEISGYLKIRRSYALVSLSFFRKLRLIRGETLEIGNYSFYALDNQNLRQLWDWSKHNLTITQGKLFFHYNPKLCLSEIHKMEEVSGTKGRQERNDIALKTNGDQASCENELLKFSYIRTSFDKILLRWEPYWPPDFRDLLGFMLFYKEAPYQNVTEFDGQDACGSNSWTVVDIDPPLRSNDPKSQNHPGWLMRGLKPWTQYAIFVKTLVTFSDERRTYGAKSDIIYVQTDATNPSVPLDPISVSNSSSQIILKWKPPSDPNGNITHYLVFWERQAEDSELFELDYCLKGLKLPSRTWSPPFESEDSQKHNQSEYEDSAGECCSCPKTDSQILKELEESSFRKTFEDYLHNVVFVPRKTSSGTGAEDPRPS
T1 sequence (P06213 763-1382 limits assumed): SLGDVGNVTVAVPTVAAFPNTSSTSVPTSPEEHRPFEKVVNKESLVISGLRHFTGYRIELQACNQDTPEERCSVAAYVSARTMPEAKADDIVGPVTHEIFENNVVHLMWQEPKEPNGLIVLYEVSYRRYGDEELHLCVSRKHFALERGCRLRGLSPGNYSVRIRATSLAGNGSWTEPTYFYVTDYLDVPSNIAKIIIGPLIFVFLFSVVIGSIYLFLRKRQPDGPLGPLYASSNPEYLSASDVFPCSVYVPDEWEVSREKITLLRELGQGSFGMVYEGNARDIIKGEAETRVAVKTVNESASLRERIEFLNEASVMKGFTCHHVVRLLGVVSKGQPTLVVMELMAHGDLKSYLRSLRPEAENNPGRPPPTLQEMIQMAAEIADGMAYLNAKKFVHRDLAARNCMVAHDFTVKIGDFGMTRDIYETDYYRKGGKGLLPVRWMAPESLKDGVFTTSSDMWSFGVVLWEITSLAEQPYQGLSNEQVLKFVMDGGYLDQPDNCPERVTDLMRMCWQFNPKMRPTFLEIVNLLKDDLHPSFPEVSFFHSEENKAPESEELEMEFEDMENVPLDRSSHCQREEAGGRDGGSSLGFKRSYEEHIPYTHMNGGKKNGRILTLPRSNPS

SMILES: O=C(O)CCCCCCCCCCCOc1ccc(S(=O)(=O)Nc2ncc(C(=O)NCCOCCOCC(=O)NCCOCCOCC(=O)O)cn2)cc1 [Binder 16]
- autophosphorylation activity [1]: 0.29
- Insulin-receptor binding affinity [2]: 0.36
- Percent remaining insulin analog, Insulin degrading enzyme, IDE (30 minutes) [3]: 88%
- NRT [min] (net retention time on columns with immobilized human serum albumin) [4]: 11.88 min

SMILES: O=C(O)CCCCCCCCCOc1ccc(S(=O)(=O)Nc2ccc(C(=O)NCCOCCOCC(=O)NCCOCCOCC(=O)O)cn2)cc1 [Binder 19]
- autophosphorylation activity [1]: 0.32
- Percent remaining insulin analog, Insulin degrading enzyme, IDE (30 minutes) [3]: 98%
- Percent remaining insulin analog, Cathepsin D (30 minutes) [5]: 0%
- Percent remaining insulin analog, α-Chymotrypsin (120 minutes) [6]: 30%
- Percent remaining insulin analog, Gastric fluid (30 minutes) [7]: 0%
- NRT [min] (net retention time on columns with immobilized human serum albumin) [4]: 10.82 min

SMILES: O=C(O)CCCCCCCCCCCCCc1ccc(Oc2ccc(S(=O)(=O)Nc3ncc(C(=O)NCCOCCOCC(=O)NCCOCCOCC(=O)O)cn3)cc2)cc1 [Binder 11]
- autophosphorylation activity [1]: 0.06
- Insulin-receptor binding affinity [2]: 0.01
- Percent remaining insulin analog, Insulin degrading enzyme, IDE (30 minutes) [3]: 12%
- NRT [min] (net retention time on columns with immobilized human serum albumin) [4]: 14.52 min

SMILES: O=C(O)CCCCCCCCCCCCCCCOc1ccc(S(=O)(=O)Nc2ncc(C(=O)NCCOCCOCC(=O)NCCOCCOCC(=O)O)cn2)cc1F [Binder 38]
- autophosphorylation activity [1]: 0.03
- Insulin-receptor binding affinity [2]: 0
- Percent remaining insulin analog, Insulin degrading enzyme, IDE (30 minutes) [3]: 86%
- Percent remaining insulin analog, Cathepsin D (30 minutes) [5]: 62%
- Percent remaining insulin analog, α-Chymotrypsin (120 minutes) [6]: 34%
- Percent remaining insulin analog, Gastric fluid (30 minutes) [7]: 36%
- NRT [min] (net retention time on columns with immobilized human serum albumin) [4]: 13.53 min

SMILES: O=C(O)CCCCCCCCCCCCCc1cc(Oc2ccc(S(=O)(=O)Nc3ccc(C(=O)NCCOCCOCC(=O)NCCOCCOCC(=O)O)cn3)cc2)ccc1F [Binder 22]
- autophosphorylation activity [1]: 0.04
- Insulin-receptor binding affinity [2]: 0.01
- Percent remaining insulin analog, Insulin degrading enzyme, IDE (30 minutes) [3]: 77%
- Percent remaining insulin analog, Cathepsin D (30 minutes) [5]: 20%
- Percent remaining insulin analog, α-Chymotrypsin (120 minutes) [6]: 99%
- Percent remaining insulin analog, Gastric fluid (30 minutes) [7]: 52%
- NRT [min] (net retention time on columns with immobilized human serum albumin) [4]: 15.55 min

SMILES: O=C(O)CCCCCCCCCCCCCCCc1cc(Oc2ccc(S(=O)(=O)Nc3ccc(C(=O)NCCOCCOCC(=O)NCCOCCOCC(=O)O)cn3)cc2)ccc1F [Binder 23]
- autophosphorylation activity [1]: 0.37
- Insulin-receptor binding affinity [2]: 0.56
- Percent remaining insulin analog, Insulin degrading enzyme, IDE (30 minutes) [3]: 80%
- NRT [min] (net retention time on columns with immobilized human serum albumin) [4]: 15.61 min

SMILES: O=C(O)CCCCCCCCCc1ccc(OCc2ccc(S(=O)(=O)Nc3ccc(C(=O)NCCOCCOCC(=O)NCCOCCOCC(=O)O)cc3)cc2)cc1 [Binder 2]
- autophosphorylation activity [1]: 0.87
- Insulin-receptor binding affinity [2]: 1.05
- Percent remaining insulin analog, Insulin degrading enzyme, IDE (30 minutes) [3]: 81%
- Percent remaining insulin analog, Cathepsin D (30 minutes) [5]: 0%
- Percent remaining insulin analog, α-Chymotrypsin (120 minutes) [6]: 35%
- Percent remaining insulin analog, Gastric fluid (30 minutes) [7]: 0%
- NRT [min] (net retention time on columns with immobilized human serum albumin) [4]: 17.88 min

SMILES: O=C(O)CCCCCCCCCCCc1cc(Oc2ccc(S(=O)(=O)Nc3ccc(C(=O)NCCOCCOCC(=O)NCCOCCOCC(=O)O)cn3)cc2)ccc1F [Binder 24]
- autophosphorylation activity [1]: 0.04
- Insulin-receptor binding affinity [2]: 0.01
- Percent remaining insulin analog, Insulin degrading enzyme, IDE (30 minutes) [3]: 86%
- Percent remaining insulin analog, Cathepsin D (30 minutes) [5]: 59%
- Percent remaining insulin analog, α-Chymotrypsin (120 minutes) [6]: 40%
- Percent remaining insulin analog, Gastric fluid (30 minutes) [7]: 52%
- NRT [min] (net retention time on columns with immobilized human serum albumin) [4]: 15.76 min

SMILES: O=C(O)CCCCCCCCCCCCCCOc1ccc(S(=O)(=O)Nc2ccc(C(=O)NCCOCCOCC(=O)NCCOCCOCC(=O)O)cn2)cc1 [Binder 7]
- autophosphorylation activity [1]: 0.2
- Insulin-receptor binding affinity [2]: 0.05
- Percent remaining insulin analog, Insulin degrading enzyme, IDE (30 minutes) [3]: 2%
- Percent remaining insulin analog, Cathepsin D (30 minutes) [5]: 52%
- Percent remaining insulin analog, α-Chymotrypsin (120 minutes) [6]: 58%
- Percent remaining insulin analog, Gastric fluid (30 minutes) [7]: 30%
- NRT [min] (net retention time on columns with immobilized human serum albumin) [4]: 14.65 min

SMILES: O=C(O)CCCCCCCCCCCCCCCCCc1ccc(S(=O)(=O)Nc2ccc(C(=O)NCCOCCOCC(=O)NCCOCCOCC(=O)O)cn2)cc1 [Binder 31]
- autophosphorylation activity [1]: 0.13
- Insulin-receptor binding affinity [2]: 0.12
- NRT [min] (net retention time on columns with immobilized human serum albumin) [4]: 15.77 min

SMILES: O=C(O)CCCCCCCCCCCCCCCOc1ccc(S(=O)(=O)Nc2ccc(C(=O)NCCOCCOCC(=O)NCCOCCOCC(=O)O)cn2)c(Cl)c1Cl [Binder 36]
- autophosphorylation activity [1]: 0.23
- Insulin-receptor binding affinity [2]: 0.17
- NRT [min] (net retention time on columns with immobilized human serum albumin) [4]: 13.89 min

SMILES: O=C(O)CCCCCCCCCCCOc1ccc(CCc2ccc(S(=O)(=O)Nc3ccc(C(=O)NCCOCCOCC(=O)NCCOCCOCC(=O)O)cn3)cc2)cc1 [Binder 25]
- autophosphorylation activity [1]: 0.03
- Insulin-receptor binding affinity [2]: 0.02
- NRT [min] (net retention time on columns with immobilized human serum albumin) [4]: 17.48 min

SMILES: O=C(O)CCCCCCCCCCCCCc1ccc(CCOc2ccc(S(=O)(=O)Nc3ncc(C(=O)NCCOCCOCC(=O)NCCOCCOCC(=O)O)cn3)cc2)cc1 [Binder 12]
- autophosphorylation activity [1]: 0.06
- Insulin-receptor binding affinity [2]: 0.01
- Percent remaining insulin analog, Insulin degrading enzyme, IDE (30 minutes) [3]: 11%
- Percent remaining insulin analog, Cathepsin D (30 minutes) [5]: 43%
- Percent remaining insulin analog, α-Chymotrypsin (120 minutes) [6]: 31%
- Percent remaining insulin analog, Gastric fluid (30 minutes) [7]: 44%
- NRT [min] (net retention time on columns with immobilized human serum albumin) [4]: 14.95 min
